Results published in patent US7470715B2, “Estrogen modulators” (Pfizer Inc., priority 2005, dated 2008).

What was measured:
[1] = molecular target: T1, ligand binding domain of the estrogen receptor alpha chain (ERαLBD) (Homo sapiens, UniProt P03372); assay: ER agonist cell assay (ERα), Huh-7 co-transfection, luciferase; type: cell-based; details: for EC50: Huh-7 cells co-transfected with pG5luc and ERαLBD, overnight incubation, luciferase; for ERα % of Max E2 Response: percent of the maximum estradiol fold change, Huh-7, pG5luc and ERαLBD
T1 construct: expressed in transfected cells; host or cells: Huh-7 human hepatoma cells, transient transfection with FuGENE 6
T1 sequence (P03372 311-547 limits assumed): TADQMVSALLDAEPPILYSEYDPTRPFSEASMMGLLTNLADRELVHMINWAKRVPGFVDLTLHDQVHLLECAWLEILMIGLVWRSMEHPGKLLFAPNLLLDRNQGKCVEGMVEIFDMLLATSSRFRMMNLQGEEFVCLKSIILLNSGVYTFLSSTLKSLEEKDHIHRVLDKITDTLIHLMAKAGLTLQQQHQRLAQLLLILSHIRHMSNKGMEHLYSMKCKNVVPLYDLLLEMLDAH
Experimental: (§1) The compounds ability to mimic the effects of estrogen on the estrogen receptor were determined in a whole cell assay as described immediately below.
(§2) Experimental Procedure for ER Agonist Cell Assay
(§3) • Cell line and plasmids: The human hepatoma cell line Huh-7 was used for co-transfections. Cells were maintained in culture medium and split when they reached 80-90% confluency. Three plasmids were routinely used in the assay. pG5luc contained the firefly luciferase gene and was obtained from Promega. […] Cell Culture Media and Reagents:
(§4) Culture medium: DMEM (phenol red free), 10% charcoal treated HyClone serum, 1% L-glutamine, and 1% penicillin/streptomycin
(§5) Transfection medium: DMEM (phenol red free) and 10% charcoal treated HyClone serum
(§6) Luciferase reagents: Dual-Glo Luciferase Kit (Promega cat #E2980) was used for determination of luciferase activity.
(§7) Transient transfections were preformed using the lipophilic reagent FuGENE 6 (Roche). Cells were split and seeded at 7.2×10^6/150 cm^2 flask in 20 mL of transfection medium. 5-6 hrs later cells were co-transfected with either pG5luc and ERαLBD or pG5luc and ERβLBD(pm418). Transfected cells grew overnight and were then used the next day.
(§8) Cells transfected 24 hrs earlier were harvested, counted, and seeded in wells containing compound at a density of 1×10^4 cells/well. […] Cells were incubated overnight at 37° C. and 5% CO2 in the presence of compound. The following day medium was aspirated from the wells and 100 ul of Dual-Glo™ Luciferase Reagent were added to each well. Plates were incubated at room temperature for 20 minutes and firefly luminescence was measured on a luminometer. Next, 50 ul of Dual-Gbo™ Stop & Glo® Reagent were added to each well and after 20 minutes at room temperature the Renilla luminescence was measured on a luminometer. Values from each well were normalized by dividing the firefly luminescence by the Renilla luminescence. Estradiol was used as the standard and run in each assay. The fold induction over background for each compound was compared to the maximum fold induction for estradiol in each assay. […] Those compounds that were not tested, or the data was unavailable are marked as NT.

[2] = molecular target: ligand binding domain of the estrogen receptor beta chain (ERβLBD) that contained a point mutation at amino acid residue 418 (pm418) (Homo sapiens, UniProt Q92731); assay: ER agonist cell assay (ERβ), Huh-7 co-transfection, luciferase; type: cell-based; details: for EC50: Huh-7 cells co-transfected with pG5luc and ERβLBD(pm418), overnight incubation, luciferase; for ERβ % of Max E2 Response: percent of the maximum estradiol fold change, Huh-7, pG5luc and ERβLBD(pm418)
Experimental: as §1, §2, §3, §4, §5, §6, §7, §8

SMILES | EC50 [1] [nM] | ERα % of Max E2 Response [1] [%] | EC50 [2] [nM] | ERβ % of Max E2 Response [2] [%]
Oc1ccc(-c2noc(C3(C(O)C4CC4)CC3)c2-c2ccccc2)cc1 (racemic) [Example 14, (±)-4-{5-[1-(Cyclopropyl-hydroxy-methyl)-cyclopropyl]-4-phenyl-isoxazol-3-yl}-phenol] | 43 | 45.4 | 136 | 17.7
Oc1ccc(-c2noc(C3(CSc4ccccc4)CC3)c2-c2ccccc2)cc1 [Example 40, 4-[4-Phenyl-5-(1-phenylsulfanylmethyl-cyclopropyl)-isoxazol-3-yl]-phenol] | 107 | 39.5 | 139 | 1.12
Oc1ccc(-c2noc(C3(c4nnc(-c5cccc(O)c5)o4)CC3)c2-c2ccccc2)cc1 [Example 125, 3-(5-{1-[3-(4-hydroxyphenyl)-4-phenylisoxazol-5-yl]cyclopropyl}-1,3,4-oxadiazol-2-yl)phenol] | 419 | 22.1 | > 10000 | >0.535
COCOCC1(c2onc(-c3ccc(O)cc3)c2-c2ccccc2)CC1 [Example 10, 4-[5-(1-Methoxymethoxymethyl-cyclopropyl)-4-phenyl-isoxazol-3-yl]-phenol] | 17.7 | 15.1 | 197 | 1.18
Oc1ccc(-c2noc(C3(CNc4cccc(C(F)(F)F)c4)CC3)c2-c2ccccc2)cc1 [Example 29, 4-(4-Phenyl-5-{1-[(3-trifluoromethyl-phenylamino)-methyl]-cyclopropyl}-isoxazol-3-yl)-phenol] |  | 11.4 |  | 0.601
Cc1ncccc1OCC1(c2onc(-c3ccc(O)cc3)c2-c2ccccc2)CC1 [Example 12, 4-{5-[1-(2-Methyl-pyridin-3-yloxymethyl)-cyclopropyl]-4-phenyl-isoxazol-3-yl}-phenol] | 354 | 26.2 |  | 0.577
CNCC1(c2onc(-c3ccc(O)cc3)c2-c2ccccc2)CC1 [Example 103, 4-[5-(1-methylaminomethyl-cyclopropyl)-4-phenyl-isoxazol-3-yl]-phenol] |  | 10.2 |  | 1.21
CC(C)(C)COC(=O)C1(c2onc(-c3ccc(O)cc3)c2-c2ccccc2)CC1 [Example 93, 1-[3-(4-Hydroxy-phenyl)-4-phenyl-isoxazol-5-yl]-cyclopropanecarboxylic acid 2,2-dimethyl-propyl ester] | 33.8 | 20.4 | > 10000 | >0.813
COc1cccc(-c2nnc(C3(c4onc(-c5ccc(O)cc5)c4-c4ccccc4)CC3)o2)c1 [Example 123, 4-(5-{1-[5-(3-methoxyphenyl)-1,3,4-oxadiazol-2-yl]cyclopropyl}-4-phenylisoxazol-3-yl)phenol] | 46.9 | 35.9 | > 10000 | >0.658
CC(=O)OCC1(c2onc(-c3ccc(O)cc3)c2-c2ccccc2)CC1 [Example 54] | 38.8 | 60.4 | 108 | 65.8
CSCC1(c2onc(-c3ccc(O)cc3)c2-c2ccccc2)CC1 [Example 38, 4-[5-(1-Methylsulfanylmethyl-cyclopropyl)-4-phenyl-isoxazol-3-yl]-phenol] | 1130 | 11.4 | 749 | 6.6
CCCC(=O)OCC1(c2onc(-c3ccc(O)cc3)c2-c2ccccc2)CC1 [Example 58] | 137 | 59.9 | 97.9 | 92
CC(=O)C1(c2onc(-c3ccc(O)cc3)c2-c2ccccc2)CC1 [Example 101, 1-{1-[3-(4-Hydroxy-phenyl)-4-phenyl-isoxazol-5-yl]-cyclopropyl}-ethanone] | 122 | 58.3 |  | 13.6
O=C(OCc1ccccc1)C1(c2onc(-c3ccc(O)cc3)c2-c2ccccc2)CC1 [Example 92, 1-[3-(4-Hydroxy-phenyl)-4-phenyl-isoxazol-5-yl]-cyclopropanecarboxylic acid benzyl ester] | 57.2 | 19.7 | > 10000 | >1.04
COc1ccc(-c2nnc(C3(c4onc(-c5ccc(O)cc5)c4-c4ccccc4)CC3)o2)cc1 [Example 129, 4-(5-{1-[5-(4-methoxyphenyl)-1,3,4-oxadiazol-2-yl]cyclopropyl}-4-phenylisoxazol-3-yl)phenol] | ≥ 10000 | 19.1 | > 10000 | 0.625
OCC1(c2onc(-c3ccc(O)c(F)c3)c2-c2ccccc2)CC1 [Example 98, 2-Fluoro-4-[5-(1-hydroxymethyl-cyclopropyl)-4-phenyl-isoxazol-3-yl]-phenol] | 985 | 46 | 799 | 36.8
CCOc1ccc(-c2nnc(C3(c4onc(-c5ccc(O)cc5)c4-c4ccccc4)CC3)o2)cc1 [Example 119, 4-(5-{1-[5-(4-ethoxyphenyl)-1,3,4-oxadiazol-2-yl]cyclopropyl}-4-phenylisoxazol-3-yl)phenol] | 469 | 22.3 | > 10000 | >3.74
Oc1ccc(-c2noc(C3(CN4CCOCC4)CC3)c2-c2ccccc2)cc1 [Example 31, 4-[5-(1-Morpholin-4-ylmethyl-cyclopropyl)-4-phenyl-isoxazol-3-yl]-phenol] | 26.9 | 30 | 151 | 1.35
O=C(OC1CCCC1)C1(c2onc(-c3ccc(O)cc3)c2-c2ccccc2)CC1 [Example 89, 1-[3-(4-Hydroxy-phenyl)-4-phenyl-isoxazol-5-yl]-cyclopropanecarboxylic acid cyclopentyl ester] | 30.5 | 26 | > 10000 | >2.93
COCC(=O)OCC1(c2onc(-c3ccc(O)cc3)c2-c2ccccc2)CC1 [Example 53] | 45.6 | 85.4 | 71.1 | 79
